Experimental data reported in patent US20180265867A1, “NUCLEIC ACID MOLECULES WITH ENHANCED ACTIVITY” (priority 2015, published 2018).
{Cy3} = Cy3 fluorescent dye label; d = 2'-deoxy (DNA); r = 2'-OH (RNA)

What was measured:
[1] = tested on: MG63 cells; conditions: no own experiment described; cited from earlier work
[2] = Thermal denaturation (Tm) of siRNA duplexes; assay type: physicochemical
Description: Thermal denaturation studies of siRNA was carried out in phosphate buffer, pH 7.0, containing 140 mM KCl. UV absorbance was monitored at 260 nm in the temperature range from 40 to 95° C. using a Lambda 35 UV-Vis spectrophotometer equipped with a Peltier temperature programmer with a heating rate of 0.5° C./min. Samples (1 μM RNA) were denatured at 90° C. for 3 min followed by slow cooling to 27° C. prior to the measurements. Tm values were obtained from the maxima of the first derivatives of the melting curves. All Tm values given are the averages of three independent sets of experiments (±0.3° C. error range).

[3] = tested on: GAPDH; assay: GAPDH gene knockdown in MG63 cells by RT-PCR; assay type: cell-based, human; conditions: MG63 cells, carrier-free transfection, 50 nM, 24 h
Description: At 70% confluency, a day prior to transfection, the cells were seeded at a density of 35 000 cells in a 24-well cell culture plate to achieve 60-80% confluence at the day of transfection. Cell penetrating siRNAs (cpRNAs) of different lengths were transfected at 50 nM concentrations with Magnet Assisted Transfection (MATra-si) reagent for siRNAs (IBA GmbH, Göttingen, Germany) according to the manufacturers' protocols. Briefly, the siRNA was mixed with MATra-si reagent composed of supermagnetic ironoxide nanoparticles and incubated for 20 min. A complex was formed which was added to the cells to be transfected. A strong magnetic force was applied beneath the cells for 15 min. This forced the complex to be drawn into the cells by the magnetic field, and as a result the siRNA was delivered directly into the cytosol. For carrier free transfection experiments, cpRNAs were simply added to cells lines MG63, HOB, HCT116, fibroblasts and keratinocytes at 50 nM concentrations. Cells were also transfected with negative control siRNA (scrambled sequence) and cells left untreated were taken as controls. Each transfection was performed in triplicate. Post transfection, cells were incubated for 24 hours.
For the experiments involving lysosomotropic agent chloroquine (CQ), CQ was first neutralized to pH 7.4 using 1 M NaOH prior to use. MG63 cells were transfected with dT2, dT5, dT8, (dT5)2, as(dT5), and bl(dT5) siRNA in presence or absence of 100 μM CQ or using MATra-si and incubated for 24 h. Similar experiments were performed for other cpRNAs namely, dA5, dT5, dG5, (dT5)2, rA5 and dC5. For the control experiment, cells were either left untreated or transfected with negative control siRNA (scrambled sequence). Each transfection experiment was performed in triplicate.
After performing transfection experiments for 24 h, 48 h and 72 h respectively, total RNA was isolated from cells by adding 500 μl of lysis buffer (Qiagen, Germany), followed by homogenization of cell lysates using QIAshredder (Qiagen, Germany). RNA was extracted from cell lysates by RNeasy Mini Kit (Qiagen, Germany). All RNA samples were treated with DNase using TURBO-DNAfree (Ambion, USA). Agilent 2100 BioAnalyzer (Agilent Technologies, Palo Alto, Calif.) was used to confirm high quality of all RNA samples, which reports an RNA Integrity Number (RIN) that takes into account the entire electrophoretic RNA trace produced in the analysis. A RIN of greater than or equal to seven indicates the RNA is suitable for high stringency applications.
cDNA synthesis was performed in triplicate using total RNA reverse transcribed using High Capacity cDNA reverse transcription kit (Applied Biosystems, USA), with non-template control added to ensure a lack of signal in assay background. Reactions were incubated on a 96-well Applied Biosystems 9800 Fast Thermal Cycler PCR System at 37° C. for 60 min followed by 95° C. for 5 min. The real-time PCR reactions were carried out with 10 μl of 2×TaqMan® Universal PCR Master Mix, no AmpErase® UNG (Applied Biosystems, USA), 9 μl diluted cDNA, and 1 μl of TaqMan gene specific assay mix in a 20 μl final reaction volume. Reference gene beta-actin (ACTB) (Applied Biosystems, USA) was selected as control for normalization of TaqMan data. The assay included a no-template control, a standard curve of five serial dilution points (in steps of 3-fold) of cDNA mixture. Probes specific for IFN-α (Hs01022060_m1), IFN-β (Hs01077958_s1), IFN-γ (Hs00985251_m1), ACTB(Hs01060665_g1) and GAPDH (Hs02758991_g1) were purchased from Applied Biosystems. The amplification was carried out using the 7500 Fast Real-Time PCR System (Applied Biosystems, USA) using a 40-cycle program. The 7500 software automatically calculates raw Ct (cycle threshold) values. Data from samples with a Ct value equal to or below 35 were further analyzed. […]

[4] = tested on: MG63 and HOB cells; assay: Cell proliferation / toxicity by MTS assay; assay type: cell-based, human; conditions: 50 and 100 nM, 24 h post transfection
Description: Cell proliferation was assessed by MTS (3-(4,5-dimethylthiazol-2-yl)-5-(3-carboxymethoxyphenyl)-2-(4-sulfophenyl)-2H-tetrazolium, inner salt) reagent assay: MG63 cells were seeded at a density of 35 000 cells in 24-well culture plates, and cultured for 24 hours as mentioned above. Cells were transfected with 50 nM or 100 nM concentrations of cpRNA and negative control siRNAs with or without MATra-si, while control wells were left untreated. Each transfection experiment was performed in triplicate. Post-transfection, cells were incubated for 24 hours at 37° C. The viable cells were evaluated by MTS assay, using CellTiter 96®AQueousOne Solution Cell Proliferation Assay (Promega, USA) according to the manufacturer's protocol. The enzymatic reduction in MTS to formazan was quantified by an ELISA plate reader (Thermo Scientific) at 490 nm.
Thus, the role of siRNA topography on immune activation and cellular toxicity was investigated because increased RNA length has been reported to cause toxicity with increased interferon (IFN)-β expression. toxicity studies were performed using the MTS assay with two concentrations of GAPDH siRNA (50 and 100 nM) with different overhang lengths (dT2, dT5, and dT8) in MG63 and HOB cells and compared it with the scrambled siRNA sequence (FIG. 5).

[5] = tested on: MG63, HOB, HCT116, HEK293 and MC3T3 cells; assay: Flow cytometry cellular uptake of Cy3-cpRNA in different cells; assay type: cell-based, human; mouse; conditions: 50 nM, 24 h at 37° C., carrier-free
Description: To determine the amount of cellular uptake of cpRNA by flow cytometry, Cy3 labeled cpRNA (Table 3) was used for transfection experiments using different types of cells (MG63, HOB, HCT116, HEK293 and MC3T3). Cells were seeded at a density of 1×10^5 cells per well and cultured for 24 hours. Thereafter, cells were transfected with 50 nM Cy3-cpRNA, with control wells left untreated. Post-transfection, cells were incubated for further 24 h at 37° C., trypsinised and washed with PBS containing 2 mM EDTA and 0.5% human serum albumin. The cells were then suspended in PBS and subjected to fluorescence analysis on a FACSCanto II (BD Biosciences) BioVis platform, scilife laboratory. The images were analyzed using FlowJo software (version 7.6; TreeStar, Ashland, Oreg.).

[6] = tested on: MG63 cells; assay: Flow cytometry uptake kinetics and ODN2006 blocking in MG63 cells; assay type: cell-based, human; conditions: MG63 cells, 50 nM, 37° C.
Description: To determine cpRNA cellular uptake kinetics, FACS experiments were repeated as mentioned above using MG63 cells, where Cy3-cpRNA was treated for different time points. Briefly, Cy3-cpRNA (50 nM) was added to cells, followed by incubation for 0.5 h, 1 h, 1.5 h, 2 h, 3 h and 4 h respectively. The cells were subsequently trypsinised and analyzed by FACS as mentioned above.
To perform […] blocking studies, seeded MG63 cells were incubated with 600 nM 3′-FITC labeled ODN2006 for 1 h, followed by addition of 50 nM cpRNA. Cells were incubated for additional 0.5 h, 1 h, 1.5 h, 2 h, 3 h and 4 h respectively, trypsinised and analyzed by FACS analysis as mentioned above.
To verify if the uptake mechanism of cpRNA was analogous to viral RNA and the RNA mimic polyriboinosinic:polyribocytidylic acid or poly(I:C), blocking studies were performed using the Btype single-stranded DNA sequence ODN2006 which share a common uptake receptor. This synthetic phosphorothioate modified oligo, though initially identified as a TLR9 agonist, blocks cellular uptake of viral RNA and poly(I:C) by preferentially competing with the common RNA uptake receptor. Blocking experiment were performed by pre-incubating the cells with FITC labeled ODN2006 for 1 h, followed by the addition of Cy3-labeled cpRNA. The blocking studies and cellular uptake was monitored using FACS analysis at different time points for up to 4 h. As a control experiment, the uptake kinetics was performed in the absence of FITC labeled ODN2006. […] These experiments verified the involvement of an alternate uptake mechanism and indicated the presence of a ubiquitous RNA capture receptor that required ˜1 h of maturation time before the endocytosis process could initiate.

| Substance | uptake kinetics [1] [min] | Tm ([2]; 7.5 mM phosphate buffer pH 7.0 containing 140 mM KCl, 1 μM strands, 40-95° C.) [°C] | Δ Tm ([2]; Tm relative to canonical siRNA (dT2)) [°C] | drop in Tm ([2]; as compared to canonical siRNA) [°C] | GAPDH gene knockdown [3] [%] | cytotoxicity (MTS assay) [4] | cellular uptake by flow cytometry ([5]; listed as Cy3-labeled cpRNA) | cellular uptake by flow cytometry ([5]; listed as Cy3 labeled cpRNA) | time after which cellular uptake was initiated [6] [h] | time in which uptake finished after initiation [6] [h] |
| --- | --- | --- | --- | --- | --- | --- | --- | --- | --- | --- |
| polyriboinosinic:polyribocytidylic acid [poly(I:C)] | ≤ 5 |  |  |  |  |  |  |  |  |  |
| dT8: GAPDH siRNA, sense SEQ ID NO: 4 with dT8 3′-overhang, antisense SEQ ID NO: 2 with dT2 (sense CCGAGCCACAUCGCUCAGATTTTTTTT; antisense UCUGAGCGAUGUGGCUCGGTT; sense: sugars from the 5' end r19 d8, backbone not given here; antisense: sugars from the 5' end r19 d2, backbone not given here) |  | 79.8 | −1.4 | 1.5 | 50 | do not impose toxicity |  |  |  |  |
| Cy3 cpRNA: GAPDH cpRNA with Cy3 at 5′-end of sense strand (SEQ ID NO: 12, dT5), antisense SEQ ID NO: 2 (sense CCGAGCCACAUCGCUCAGATTTTT; antisense UCUGAGCGAUGUGGCUCGGTT; sense: sugars from the 5' end r19 d5, 5' {Cy3}, backbone not given here; antisense: sugars from the 5' end r19 d2, backbone not given here) |  |  |  |  | 80 |  | near quantitative cellular uptake | quantitatively taken up by all the cells | 1 | ≤ 2 |
